Data on six molecules can be found in US20060014717A1, “Therapeutic compositions for use in prophylaxis or treatment of diarrheas” (priority 2002, published 2006).

For assay [1], the system named is enteropathogenic wild type E. coli strain 37. The assay is described as follows: Inhibition with soluble oligosaccharides in the chromatogram binding assay. More on the design: species or system Escherichia coli. The method, then: FIG. 5. […] Radiolabeled wild type E. coli strain 37 was incubated with a mixture of globotriaose (1.5 mM), neolactotetraose (1.5 mM) and 6′sialyllactose (1.5 mM) in PBS for 1 h at room temperature. Thereafter the suspensions were utilized in the chromatogram binding assay. (A) Binding of radiolabeled E. coli strain 37. (B) Binding of E. coli strain 37 incubated with a mixture of globotriaose, neolactotetraose and 6′sialyllactose. Lanes 1-4 were serial dilutions of globotriaosylceramide (Galα4Galβ4Glc β1Cer) and NeuGc-neolactohexaosylceramide (NeuGcα3Galβ4GlcNAcβ3Gaβ4GlcNacβ3Galβ4Glcβ1Cer). Lane 1, 2 μg of each compound, lane 2, 1 μg of each compound, lane 3, 0.5 μg of each compound, lane 4, 0.2 μg of each compound. Lanes 5-8 were serial dilutions of NeuGc-neolactotetraosylceramide (NeuGcα3Galβ4GlcNAcβ3Galβ4Glcβ1Cer). Lane 5, 2 μg of each compound, lane 6, 1 μg of each compound, lane 7, 0.5 μg of each compound, lane 8, 0.2 μg of each compound. The glycosphingolipids were separated on aluminium-packed silica gel plates, using chloroform/methanol/water (60:35:8, by volume) as solvent system, and the binding assay was performed as described under “Experimental procedures”. Autoradiography was for 12 h.
(C) Binding curves obtained after quantification of binding by densitometry. The autoradiograms in (A) and (B) were analyzed using the NIH Image program. […]

The subject of another assay is EPEC. To be noted: 100 mM; cited from earlier work.
In the next assay the test system is diarrheagenic E. coli. The assay is described as follows: Inhibition with soluble oligosaccharides in the chromatogram binding assay. More on the design: species or system Escherichia coli. The procedure: (§1) Glycosphingolipid Binding Assays—Binding of ^35S-labeled bacteria to glycosphingolipids on thin-layer chromatograms was done as reported (7). Dried chromatograms were dipped for 1 min in diethylether/n-hexane (1:5, by volume) containing 0.5% (w/v) polyisobutylmethacrylate (Aldrich Chem. Comp. Inc., Milwaukee, Wis.). After drying, the chromatograms were soaked in PBS containing 2% bovine serum albumin (w/v), 0.1% NaN3 (w/v) and 0.1% Tween 20 (by volume) for 2 h at room temperature. The chromatograms were subsequentely covered with radiolabeled bacteria diluted in PBS (2-5×10^6 cpm/ml). Incubation was done for 2 h at room temperature, followed by repeated washings with PBS. The chromatograms were thereafter autoradiographed using XAR-5 X-ray films (Eastman Kodak, Rochester, N.Y.) for 12 h. Autoradiograms were replicated using a CCD camera (Dage-MTI, Inc., Michigan City, Ind.), and analysis of the images was performed using the public domain NIH Image program (developed at the U.S. National Institutes of Health, and available at http://rsb.info.nih.eov/nih-imaee/).
The final concentrations of the inhibiting oligosaccharides on the TLC-plate were 0.3 mM. […] Thereafter the chromatogram binding assay was performed as described above.

The test system of assay [2] is shiga toxina and shigalike toxin. To be noted: cited from earlier work.
Assay [3] has as its system Helicobacter pylori. To be noted: cited from earlier work.
Assay [4] deals with Helicobacter pylori. To be noted: in vivo; cited from earlier work.
A further assay has as its system H. pylori CCUG 17875. The assay is described as follows: Binding of 35S-labeled Helicobacter species to glycosphingolipids on thin-layer chromatograms. To be noted: 2 μg (40 μg for the glycosphingolipid fraction) on TLC plates. More on the design: species or system Helicobacter pylori; key: An significant darkening on the autoradiogram when 2 μg of the glycosphingolipid was applied on the thin-layer plate is denoted by +; − denotes no binding. The source says: (§2) Gastric species examined in the present study included, Helicobacter mustelae ferret isolates from the National Collection of Type Cultures (NCTC) and the Culture Collection of the University of Gothenberg (CCUG), NCTC 12198/CCUG 25175 (equivalent strains from different sources tested), CCUG 23950 and CCUG 23951, Helicobacterfelis CCUG 28539 from a cat, in addition, H. pylori strains CCUG 17874, CCUG 17875 and a clinical isolate 119/95 were used. Enterohepatic helicobacters of animal origin were purchased from the CCUG including, Helicobacter canes CCUG 33835, Helicobacter bilis CCUG 38995, Helicobacter hepaticus CCUG 33637, and Helicobacterfennelliae (CCUG 18820).
(§3) Binding of Helicobacter spp. to glycosphingolipids, both acid and non-acidfractions. Glycosphingolipids were isolated by standard procedures (Karlsson, 1987). The identity of the purified glycosphingolipids was confirmed by mass spectrometry (Samuelsson et al., 1990), proton NMR spectroscopy (Koerner et al., 1983) and degradation studies (Stellner et al., 1973; Yang and Hakomori, 1971).
(§4) Mixtures of glycosphingolipids (40 μg/lane) or pure compounds (2 μg/lane) were subsequently separated using thin-layer chromatography (TLC) on glass- or aluminum-backed silica gel 60 HPTLC plates (Merck, Darmstadt, Germany), with chloroform/methanot/water (60:35:8, by volume) as solvent system. Chemical detection was accomplished by anisaldehyde (Waldi, 1962). Helicobacter spp. were subjected to ^35S-labeling (Angstrom et al., 1998) and suspended in PBS (10^8 CFU/ml) with a specific activity of approximately 1 cpm per 100 organisms. Binding of the labeled-bacteria to glycosphingolipids separated by TLC was achieved using a bacterial-overlay technique coupled with autoradiography detection using XAR-5 X-ray films (Eastman Kodak, Rochester, N.Y.) as previously described (Hansson et al., 1985).

A further assay has as its system H. pylori CCUG 17874. Described as above. Also noted: species or system Helicobacter pylori; key: An significant darkening on the autoradiogram when 2 μg of the glycosphingolipid was applied on the thin-layer plate is denoted by +; − denotes no binding. To be noted: 2 μg (40 μg for the glycosphingolipid fraction) on TLC plates.
Description: as §2, §3, §4

Assay [5] deals with H. mustelae CCUG 23950 & 23951. Described as above. More on the design: species or system Helicobacter mustelae; key: An significant darkening on the autoradiogram when 2 μg of the glycosphingolipid was applied on the thin-layer plate is denoted by +; − denotes no binding. To be noted: 2 μg (40 μg for the glycosphingolipid fraction) on TLC plates.
Description: as §2, §3, §4

A further assay relates to H. mustelae 25715. Described as above. More on the design: species or system Helicobacter mustelae; key: An significant darkening on the autoradiogram when 2 μg of the glycosphingolipid was applied on the thin-layer plate is denoted by +; − denotes no binding. To be noted: 2 μg (40 μg for the glycosphingolipid fraction) on TLC plates.
Description: as §2, §3, §4

In another assay the test system is E. coli EIEC CCUG 38092. The assay is described as follows: Chromatogram binding assay, binding specificities of type strains. To be noted: prolonged sub-culture, 4 μg per lane. More on the design: species or system Escherichia coli. The method, then:
Culture Conditions and Labeling—The E. coli strains were cultured on Luria-agar with the addition of 10 μl ^35S-methionine (400 tici; Amersham Pharmacia Biotech, U.K.) at 37° C. for 12 h. The bacteria were harvested by scraping, washed three times with phosphate-buffered saline (PBS), pH 7.3, and thereafter resuspended in PBS (with or without 1% mannose (w/v)) to 1×10^8 CFU/ml. The specific activities of the suspensions were approximately 1 cpm per 100 bacteria.
Thin-Layer Chromatography—Thin-layer chromatography of glycosphingolipids was performed on glass- or aluminum-backed silica gel 60 HPTLC plates (Merck, Darmstadt, Germany), using chloroform/methanol/water 60:35:8 (by volume) as solvent system. Chemical detection was done with anisaldehyde (6).
as §1
However, several wild type diarrheagenic E. coli strains bind to sialic acid (see e.g. FIG. 6 and FIG. 3). […]

For the next assay, the system named is H. canis CCUG 33835. The assay is described as follows: Binding of 35S-labeled Helicobacter species to glycosphingolipids on thin-layer chromatograms. Also noted: species or system Helicobacter canis; key: An significant darkening on the autoradiogram when 2 μg of the glycosphingolipid was applied on the thin-layer plate is denoted by +; − denotes no binding. To be noted: 2 μg (40 μg for the glycosphingolipid fraction) on TLC plates.
Description: as §2, §3, §4

The subject of the next assay is H. felis CCUG 28539. The assay is described as above. Also noted: species or system Helicobacter felis; key: An significant darkening on the autoradiogram when 2 μg of the glycosphingolipid was applied on the thin-layer plate is denoted by +; − denotes no binding. To be noted: 2 μg (40 μg for the glycosphingolipid fraction) on TLC plates.
Description: as §2, §3, §4

A further assay has as its system EPEC strain. To be noted: listed in decreasing order of activity; cited from earlier work.
The subject of the next assay is H. bilis CCUG 38995. Briefly: Binding of 35S-labeled Helicobacter species to glycosphingolipids on thin-layer chromatograms. Also noted: species or system Helicobacter bilis; key: An significant darkening on the autoradiogram when 2 μg of the glycosphingolipid was applied on the thin-layer plate is denoted by +; − denotes no binding. To be noted: 2 μg (40 μg for the glycosphingolipid fraction) on TLC plates.
Description: as §2, §3, §4

A further assay concerns H. hepaticus CCUG 33637. The description is as above. More on the design: species or system Helicobacter hepaticus; key: An significant darkening on the autoradiogram when 2 μg of the glycosphingolipid was applied on the thin-layer plate is denoted by +; − denotes no binding. To be noted: 2 μg (40 μg for the glycosphingolipid fraction) on TLC plates.
Description: as §2, §3, §4

As to `CC(=O)NC1C(O)CC(OCC2OC(OC3C(CO)OC(O)C(O)C3O)C(O)C(O)C2O)(C(=O)O)OC1C(O)C(O)CO` (stereo not shown) [6′sialyllactose, NeuNAcα6Galβ4Glc], the “Inhibition of binding to NeuGcα3-neolactotetraosylceramide” value in assay [1] is given as “inhibited”.
As for `CC(=O)N[C@H]1C(O)O[C@H](CO)[C@H](O)[C@@H]1O` (stereo partly shown) [N-acetylgalactosamine], the “Inhibition of EPEC binding to HeLa cells” value in the assay with EPEC is given as “inhibited”.
Turning to `OC[C@H]1O[C@H](O[C@@H]2[C@H](O)[C@@H](O)[C@H](O[C@H]3[C@H](O)[C@@H](O)C(O)O[C@@H]3CO)O[C@@H]2CO)[C@H](O)[C@@H](O)[C@H]1O` (stereo partly shown) [globotriaose, Galα4Galβ4Glc], the “Inhibition of non-toxigenic diarrhea causing E. coli by monovalent oligosaccharide” value with diarrheagenic E. coli (concentration of 0.3 mM) is “effect is seen”. The “Inhibition of binding to globotriaosylceramide” value in the assay on diarrheagenic E. coli (preincubation 1.5 mM, final concentration 0.3 mM) is listed as “Inhibition of binding”. Besides, in assay [2], the “Inhibition of toxin with monovalent inhibitor” value was “Minor effects”.
Consider `CC(=O)N[C@H]1[C@H]([C@H](O)[C@H](O)CO)O[C@@](O[C@H]2[C@@H](O)[C@@H](CO)O[C@@H](O[C@H]3[C@H](O)[C@@H](O)C(O)O[C@@H]3CO)[C@@H]2O)(C(=O)O)C[C@@H]1O` (stereo partly shown) [sialyl-lactose], for which the “Inhibition of Helicobacter pylori binding to human gastrointestinal cell lines” value in the assay with Helicobacter pylori [3] is recorded as “inhibits”. For the same molecule, in the assay on Helicobacter pylori [4], the “Efficacy in a rhesus monkey animal model of the infection” value is recorded as “effective”.
As to GalNAcβ3Galα4Galβ4Glcβ1Cer [No. 12], in the assay on H. pylori CCUG 17875, the “Binding of glycosphingolipids to H.pylori 17875” value is “−”. In addition, in the assay on H. pylori CCUG 17874, the “Binding of glycosphingolipids to H.pylori 17874” value was “−”. The “Binding of glycosphingolipids to H.mustelae 23950 & 23951” value in assay [5] is listed as “−”. Moreover, the “Binding of glycosphingolipids to H.mustelae 25715” value in the assay on H. mustelae 25715 is listed as “−”. Also, the “Binding of E. coli CCUG 38092 to pure glycosphingolipids after sub-culture” value in the assay on E. coli EIEC CCUG 38092 was “remain”. Moreover, the “Binding of glycosphingolipids to H.canis 33835” value in the assay with H. canis CCUG 33835 is recorded as “−”. Further, the “Binding of glycosphingolipids to H.felis 28539” value in the assay on H. felis CCUG 28539 is listed as “−”. In addition, in the assay on EPEC strain, the “Binding of an EPEC strain to commercial glycolipids” value is recorded as “observed to bind”. Also, the “Binding of glycosphingolipids to H.bilis 38995” value in the assay on H. bilis CCUG 38995 is “−”. The “Binding of glycosphingolipids to H.hepaticus 33637” value with H. hepaticus CCUG 33637 is listed as “−”.
On to “Galβ3(Fucα4)GlcNAcβ3Galβ4Glcβ1Cer [No. 24]”, for which, in the assay on H. pylori CCUG 17875, the “Binding of glycosphingolipids to H.pylori 17875” value is “−”. Moreover, in the assay on H. pylori CCUG 17874, the “Binding of glycosphingolipids to H.pylori 17874” value was “−”. Also, the “Binding of glycosphingolipids to H.mustelae 23950 & 23951” value in assay [5] was “−”. In addition, the “Binding of glycosphingolipids to H.mustelae 25715” value in the assay with H. mustelae 25715 was “−”. Moreover, the “Binding of glycosphingolipids to H.canis 33835” value in the assay with H. canis CCUG 33835 is “−”. Further, in the assay with H. felis CCUG 28539, the “Binding of glycosphingolipids to H.felis 28539” value is reported as “−”. Besides, the “Binding of glycosphingolipids to H.bilis 38995” value with H. bilis CCUG 38995 was “−”. For the same molecule, the “Binding of glycosphingolipids to H.hepaticus 33637” value with H. hepaticus CCUG 33637 is on record as “−”.
